The NIST ThermoML archive (doi:10.1021/je200721d)

Assay: xn = mol fraction of the nth substance listed
Conditions: Liquid, Vibrating tube method

CCCCCCCC [octane] + CCCCCC
Conditions	mass density [kg/m3]
342.93 K, 1000 kPa, x2 = 0.5749	640.49
342.93 K, 2000 kPa, x2 = 0.5749	641.81
342.93 K, 3000 kPa, x2 = 0.5749	643.05
342.93 K, 4000 kPa, x2 = 0.5749	644.29
342.93 K, 5000 kPa, x2 = 0.5749	645.58
342.93 K, 6000 kPa, x2 = 0.5749	646.83
342.93 K, 7000 kPa, x2 = 0.5749	648.05
342.93 K, 8000 kPa, x2 = 0.5749	649.28
342.93 K, 9000 kPa, x2 = 0.5749	650.49
342.93 K, 10000 kPa, x2 = 0.5749	651.67
342.93 K, 11000 kPa, x2 = 0.5749	652.87
342.93 K, 12000 kPa, x2 = 0.5749	654.03
342.93 K, 13000 kPa, x2 = 0.5749	655.19
342.93 K, 14000 kPa, x2 = 0.5749	656.31
342.93 K, 15000 kPa, x2 = 0.5749	657.42
342.93 K, 16000 kPa, x2 = 0.5749	658.5
342.93 K, 17000 kPa, x2 = 0.5749	659.57
342.93 K, 18000 kPa, x2 = 0.5749	660.6
342.93 K, 19000 kPa, x2 = 0.5749	661.62
342.93 K, 20000 kPa, x2 = 0.5749	662.6
342.93 K, 21000 kPa, x2 = 0.5749	663.59
342.93 K, 22000 kPa, x2 = 0.5749	664.52
342.93 K, 23000 kPa, x2 = 0.5749	665.48
342.93 K, 24000 kPa, x2 = 0.5749	666.39
342.93 K, 25000 kPa, x2 = 0.5749	667.28
342.94 K, 1000 kPa, x2 = 0.2199	655.33
342.94 K, 2000 kPa, x2 = 0.2199	656.52
342.94 K, 3000 kPa, x2 = 0.2199	657.67
342.94 K, 4000 kPa, x2 = 0.2199	658.87
342.94 K, 5000 kPa, x2 = 0.2199	660.02
342.94 K, 6000 kPa, x2 = 0.2199	661.18
342.94 K, 7000 kPa, x2 = 0.2199	662.34
342.94 K, 8000 kPa, x2 = 0.2199	663.49
342.94 K, 9000 kPa, x2 = 0.2199	664.6
342.94 K, 10000 kPa, x2 = 0.2199	665.73
342.94 K, 11000 kPa, x2 = 0.2199	666.84
342.94 K, 12000 kPa, x2 = 0.2199	667.93
342.94 K, 13000 kPa, x2 = 0.2199	669.01
342.94 K, 14000 kPa, x2 = 0.2199	670.06
342.94 K, 15000 kPa, x2 = 0.2199	671.09
342.94 K, 16000 kPa, x2 = 0.2199	672.1
342.94 K, 17000 kPa, x2 = 0.2199	673.1
342.94 K, 18000 kPa, x2 = 0.2199	674.07
342.94 K, 19000 kPa, x2 = 0.2199	675.02
342.94 K, 20000 kPa, x2 = 0.2199	675.95
342.94 K, 21000 kPa, x2 = 0.2199	676.87
342.94 K, 22000 kPa, x2 = 0.2199	677.76
342.94 K, 23000 kPa, x2 = 0.2199	678.64
342.94 K, 24000 kPa, x2 = 0.2199	679.49
342.94 K, 25000 kPa, x2 = 0.2199	680.34
342.98 K, 1000 kPa, x2 = 0.9308	619.48
342.98 K, 2000 kPa, x2 = 0.9308	620.92
342.98 K, 3000 kPa, x2 = 0.9308	622.34
342.98 K, 4000 kPa, x2 = 0.9308	623.76
342.98 K, 5000 kPa, x2 = 0.9308	625.17
342.98 K, 6000 kPa, x2 = 0.9308	626.56
342.98 K, 7000 kPa, x2 = 0.9308	627.93
342.98 K, 8000 kPa, x2 = 0.9308	629.29
342.98 K, 9000 kPa, x2 = 0.9308	630.63
342.98 K, 10000 kPa, x2 = 0.9308	631.94
342.98 K, 11000 kPa, x2 = 0.9308	633.24
342.98 K, 12000 kPa, x2 = 0.9308	634.53
342.98 K, 13000 kPa, x2 = 0.9308	635.77
342.98 K, 14000 kPa, x2 = 0.9308	637.01
342.98 K, 15000 kPa, x2 = 0.9308	638.23
342.98 K, 16000 kPa, x2 = 0.9308	639.42
342.98 K, 17000 kPa, x2 = 0.9308	640.57
342.98 K, 18000 kPa, x2 = 0.9308	641.7
342.98 K, 19000 kPa, x2 = 0.9308	642.81
342.98 K, 20000 kPa, x2 = 0.9308	643.91
342.98 K, 21000 kPa, x2 = 0.9308	644.95
342.98 K, 22000 kPa, x2 = 0.9308	645.97
342.98 K, 23000 kPa, x2 = 0.9308	646.98
342.98 K, 24000 kPa, x2 = 0.9308	647.95
342.98 K, 25000 kPa, x2 = 0.9308	648.91
342.99 K, 1000 kPa, x2 = 0.1654	657.36
342.99 K, 2000 kPa, x2 = 0.1654	658.52
342.99 K, 3000 kPa, x2 = 0.1654	659.68
342.99 K, 4000 kPa, x2 = 0.1654	660.84
342.99 K, 5000 kPa, x2 = 0.1654	662.01
342.99 K, 6000 kPa, x2 = 0.1654	663.15
342.99 K, 7000 kPa, x2 = 0.1654	664.27
342.99 K, 8000 kPa, x2 = 0.1654	665.4
342.99 K, 9000 kPa, x2 = 0.1654	666.53
342.99 K, 10000 kPa, x2 = 0.1654	667.62
342.99 K, 11000 kPa, x2 = 0.1654	668.73
342.99 K, 12000 kPa, x2 = 0.1654	669.8
342.99 K, 13000 kPa, x2 = 0.1654	670.86
342.99 K, 14000 kPa, x2 = 0.1654	671.91
342.99 K, 15000 kPa, x2 = 0.1654	672.94
342.99 K, 16000 kPa, x2 = 0.1654	673.96
342.99 K, 17000 kPa, x2 = 0.1654	674.95
342.99 K, 18000 kPa, x2 = 0.1654	675.92
